# Measured values as given in PubChem BioAssay AID1963437 (Molecular Pharmacology Branch, DTP, NCI, 2024).
# pIC50: −log10 of the molar value.
# System: OVCAR-8 complex spheroid, growth inhibition
# Experiment: Anticancer human tumor OVCAR-8 cell line growth inhibition [Asc];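 also: spheroids exposed to agents for 7 days before readout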;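 as to viability, T/C: percent viability relative to DMSO vehicle wells taken as 100%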
# Conditions: for pIC50: curve of first compound; for viability, T/C: stronger effect = lower value
# Method in brief: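 Tumor cells were grown as multicellular spheroids with stromal HUVEC and mesenchymal stem cells and treated singly or in combination. Concentrations fell in half-log steps from the clinical Cmax, or from 10 microM where none was known.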
# [1] = second compound 0.0316 µM, first compound 0.0316 µM
# [2] = second compound 0.0316 µM, first compound 0.1 µM
# [3] = second compound 0.0316 µM, first compound 0.316 µM
# [4] = second compound 0.0316 µM, first compound 1 µM
# [5] = second compound 0.0316 µM, first compound 3.16 µM
# [6] = second compound 0.0316 µM, first compound 10 µM
# [7] = second compound 0.1 µM, first compound 0.0316 µM
# [8] = second compound 0.1 µM, first compound 0.1 µM
# [9] = second compound 0.1 µM, first compound 0.316 µM
# [10] = second compound 0.1 µM, first compound 1 µM
# [11] = second compound 0.1 µM, first compound 3.16 µM
# [12] = second compound 0.1 µM, first compound 10 µM
# [13] = second compound 0.316 µM, first compound 0.0316 µM
# [14] = second compound 0.316 µM, first compound 0.1 µM
# [15] = second compound 0.316 µM, first compound 0.316 µM
# [16] = second compound 0.316 µM, first compound 1 µM
# [17] = second compound 0.316 µM, first compound 3.16 µM
# [18] = second compound 0.316 µM, first compound 10 µM
# [19] = second compound 1 µM, first compound 0.0316 µM
# [20] = second compound 1 µM, first compound 0.1 µM
# [21] = second compound 1 µM, first compound 0.316 µM
# [22] = second compound 1 µM, first compound 1 µM
# [23] = second compound 1 µM, first compound 3.16 µM
# [24] = second compound 1 µM, first compound 10 µM
# [25] = second compound 3.16 µM, first compound 0.0316 µM
# [26] = second compound 3.16 µM, first compound 0.1 µM
# [27] = second compound 3.16 µM, first compound 0.316 µM
# [28] = second compound 3.16 µM, first compound 1 µM
# [29] = second compound 10 µM, first compound 0.0316 µM
# [30] = second compound 10 µM, first compound 0.1 µM
# [31] = second compound 10 µM, first compound 0.316 µM
# [32] = second compound 10 µM, first compound 1 µM
compound,measurement,setting,value
C=C(F)C(=O)N1CCN(c2nc(OCC3CCCN3C)nc3c2CCN(c2cccc4cccc(Cl)c24)C3)CC1CC#N (stereo unspecified) + CNC(C)C(=O)NC1CN(S(=O)(=O)c2cccc(S(=O)(=O)N3CCC4CCC(C(=O)NC(c5ccccc5)c5ccccc5)N4C(=O)C(NC(=O)C(C)NC)C3)c2)CCC2CCC(C(=O)NC(c3ccccc3)c3ccccc3)N2C1=O,pIC50,second compound 0.00316 µM,5.79
same,pIC50,second compound 0.01 µM,5.76
same,pIC50,second compound 0.0316 µM,5.80
same,pIC50,second compound 0.1 µM,6.02
same,pIC50,second compound 0.316 µM,6.12
same,pIC50,second compound 1 µM,6.19
same,"viability, T/C","second compound 0.00316 µM, first compound 0.0316 µM",114%
same,"viability, T/C","second compound 0.00316 µM, first compound 0.1 µM",103%
same,"viability, T/C","second compound 0.00316 µM, first compound 0.316 µM",107%
same,"viability, T/C","second compound 0.00316 µM, first compound 1 µM",83.1%
same,"viability, T/C","second compound 0.00316 µM, first compound 3.16 µM",4.81%
same,"viability, T/C","second compound 0.00316 µM, first compound 10 µM",0.78%
same,"viability, T/C","second compound 0.01 µM, first compound 0.0316 µM",98.7%
same,"viability, T/C","second compound 0.01 µM, first compound 0.1 µM",94.6%
same,"viability, T/C","second compound 0.01 µM, first compound 0.316 µM",96%
same,"viability, T/C","second compound 0.01 µM, first compound 1 µM",91.2%
same,"viability, T/C","second compound 0.01 µM, first compound 3.16 µM",4.17%
same,"viability, T/C","second compound 0.01 µM, first compound 10 µM",0.22%
same,"viability, T/C",[1],97.8%
same,"viability, T/C",[2],94.1%
same,"viability, T/C",[3],96.1%
same,"viability, T/C",[4],81.9%
same,"viability, T/C",[5],3.55%
same,"viability, T/C",[6],0.26%
same,"viability, T/C",[7],83.1%
same,"viability, T/C",[8],100%
same,"viability, T/C",[9],95.7%
same,"viability, T/C",[10],48.3%
same,"viability, T/C",[11],3.72%
same,"viability, T/C",[12],0.27%
same,"viability, T/C",[13],90%
same,"viability, T/C",[14],89.9%
same,"viability, T/C",[15],106%
same,"viability, T/C",[16],35.4%
same,"viability, T/C",[17],3.15%
same,"viability, T/C",[18],0.66%
same,"viability, T/C",[19],78%
same,"viability, T/C",[20],90.7%
same,"viability, T/C",[21],97.1%
same,"viability, T/C",[22],25.4%
same,"viability, T/C",[23],2.44%
same,"viability, T/C",[24],0.35%
O=C(c1ccc(F)c(F)c1Nc1ccc(I)cc1F)N1CC(O)([C@@H]2CCCCN2)C1 + Cc1c(S(C)(=O)=O)c(-c2cc(F)cc(N3CCN(c4ccc(NS(=O)(=O)c5ccc(NC(CCN6CCC(C(=O)OCCCP(=O)(O)O)CC6)CSc6ccccc6)c(S(=O)(=O)C(F)(F)F)c5)cc4)CC3)c2)c(-c2ccc(Cl)cc2)n1C(C)C,pIC50,second compound 0.0316 µM,< 6.00
same,pIC50,second compound 0.1 µM,< 6.00
same,pIC50,second compound 0.316 µM,< 6.00
same,pIC50,second compound 1 µM,< 6.00
same,pIC50,second compound 3.16 µM,< 6.00
same,pIC50,second compound 10 µM,< 6.00
same,"viability, T/C","second compound 0.0316 µM, first compound 0.00316 µM",103%
same,"viability, T/C","second compound 0.0316 µM, first compound 0.01 µM",114%
same,"viability, T/C",[1],140%
same,"viability, T/C",[2],173%
same,"viability, T/C",[3],234%
same,"viability, T/C",[4],135%
same,"viability, T/C","second compound 0.1 µM, first compound 0.00316 µM",110%
same,"viability, T/C","second compound 0.1 µM, first compound 0.01 µM",134%
same,"viability, T/C",[7],160%
same,"viability, T/C",[8],199%
same,"viability, T/C",[9],254%
same,"viability, T/C",[10],122%
same,"viability, T/C","second compound 0.316 µM, first compound 0.00316 µM",115%
same,"viability, T/C","second compound 0.316 µM, first compound 0.01 µM",115%
same,"viability, T/C",[13],157%
same,"viability, T/C",[14],204%
same,"viability, T/C",[15],244%
same,"viability, T/C",[16],139%
same,"viability, T/C","second compound 1 µM, first compound 0.00316 µM",129%
same,"viability, T/C","second compound 1 µM, first compound 0.01 µM",157%
same,"viability, T/C",[19],195%
same,"viability, T/C",[20],228%
same,"viability, T/C",[21],258%
same,"viability, T/C",[22],126%
same,"viability, T/C","second compound 3.16 µM, first compound 0.00316 µM",125%
same,"viability, T/C","second compound 3.16 µM, first compound 0.01 µM",137%
same,"viability, T/C",[25],197%
same,"viability, T/C",[26],228%
same,"viability, T/C",[27],253%
same,"viability, T/C",[28],99.5%
same,"viability, T/C","second compound 10 µM, first compound 0.00316 µM",154%
same,"viability, T/C","second compound 10 µM, first compound 0.01 µM",141%
same,"viability, T/C",[29],183%
same,"viability, T/C",[30],224%
same,"viability, T/C",[31],234%
same,"viability, T/C",[32],107%
C=CC(=O)N1CCN(c2nc(=O)n(-c3c(C)ccnc3C(C)C)c3nc(-c4c(O)cccc4F)c(F)cc23)C(C)C1 (stereo unspecified) + Cc1c(S(C)(=O)=O)c(-c2cc(F)cc(N3CCN(c4ccc(NS(=O)(=O)c5ccc(NC(CCN6CCC(C(=O)OCCCP(=O)(O)O)CC6)CSc6ccccc6)c(S(=O)(=O)C(F)(F)F)c5)cc4)CC3)c2)c(-c2ccc(Cl)cc2)n1C(C)C,pIC50,second compound 0.0316 µM,< 5.00
same,pIC50,second compound 0.1 µM,< 5.00
same,pIC50,second compound 0.316 µM,< 5.00
same,pIC50,second compound 1 µM,< 5.00
same,pIC50,second compound 3.16 µM,< 5.00
same,pIC50,second compound 10 µM,< 5.00
same,"viability, T/C",[1],109%
same,"viability, T/C",[2],113%
same,"viability, T/C",[3],93.3%
same,"viability, T/C",[4],95%
same,"viability, T/C",[5],106%
same,"viability, T/C",[6],122%
same,"viability, T/C",[7],101%
same,"viability, T/C",[8],96.2%
same,"viability, T/C",[9],94.5%
same,"viability, T/C",[10],104%
same,"viability, T/C",[11],93.3%
same,"viability, T/C",[12],118%
same,"viability, T/C",[13],97.5%
same,"viability, T/C",[14],92.3%
same,"viability, T/C",[15],106%
same,"viability, T/C",[16],93.6%
same,"viability, T/C",[17],99%
same,"viability, T/C",[18],123%
same,"viability, T/C",[19],104%
same,"viability, T/C",[20],112%
same,"viability, T/C",[21],114%
same,"viability, T/C",[22],92.9%
same,"viability, T/C",[23],92.8%
same,"viability, T/C",[24],109%
same,"viability, T/C",[25],102%
same,"viability, T/C",[26],98.3%
same,"viability, T/C",[27],89.7%
same,"viability, T/C",[28],104%
same,"viability, T/C","second compound 3.16 µM, first compound 3.16 µM",93.7%
same,"viability, T/C","second compound 3.16 µM, first compound 10 µM",105%
same,"viability, T/C",[29],101%
same,"viability, T/C",[30],91.5%
same,"viability, T/C",[31],81.9%
same,"viability, T/C",[32],91.6%
same,"viability, T/C","second compound 10 µM, first compound 3.16 µM",99.5%
same,"viability, T/C","second compound 10 µM, first compound 10 µM",101%
